Assay results reported in paper PMC3842914, “Meleagrin, a New FabI Inhibitor from Penicillium chryosogenum with at Least One Additional Mode of Action” (PLoS ONE, 2013).

Biological target: T1, S. aureus FabI (Staphylococcus aureus, UniProt Q6GI75)
T1 construct: made in house
T1 sequence (Q6GI75 1-256): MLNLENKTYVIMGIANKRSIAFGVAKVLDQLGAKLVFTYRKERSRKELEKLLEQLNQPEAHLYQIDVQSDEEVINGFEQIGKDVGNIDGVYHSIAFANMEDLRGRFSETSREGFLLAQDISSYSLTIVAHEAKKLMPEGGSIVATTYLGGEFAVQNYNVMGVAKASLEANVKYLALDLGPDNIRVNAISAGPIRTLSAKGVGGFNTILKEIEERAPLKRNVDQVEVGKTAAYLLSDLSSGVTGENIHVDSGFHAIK
Assay: Fluorescence quenching assay (direct binding)
Conditions: increasing amounts of compound; FabI fluorescence at 307 nm
Experimental: Fluorescence spectra were measured using a SHIMADZU fluorescence spectrophotometer (model RF-5310PC). […] Protein quenching was monitored at 25°C by using 5-nm excitation and 5-nm emission wavelength. The excitation wavelength was 280 nm, and the emission spectra were measured between 290 and 430 nm.

With `NC[C@H]1O[C@H](O[C@H]2[C@H](O)[C@@H](O[C@H]3O[C@H](CO)[C@@H](O)[C@H](N)[C@H]3O)[C@H](N)C[C@@H]2N)[C@H](O)[C@@H](O)[C@@H]1O` [kanamycin, reference compound] the “Fluorescence quenching of S. aureus FabI” value was “did not”.
